{"source": "paper PMC6894747", "about": "(PLoS Pathogens, 2019)", "key": {"rhesus monkey IgG": {"target": "rhesus monkey IgG", "assay": "ELISA binding to rhesus monkey IgG", "details": "ELISA on peptide-coated plate; one site specific binding fit; ± SE, three replicates per point; read-out: Estimated Kd of binding to rhesus monkey IgG", "experimental": "Next, different concentrations of human or rhesus monkey IgG were added to the peptide-coated plate and incubated at 37 °C for 1 h. Rabbit anti-human IgG-HRP (1:3000 diluted) was added to each well and incubated at 37 °C for another 1 h. Afterwards, the bound IgG-HRP was detected by addition of the HRP substrate TMB. The reaction was terminated by addition of 1 M H2SO4 50 μL. Absorbance at 450 nm was measured using an ELISA reader (Ultra 384; Tecan, Research Triangle Park, NC).\nThe data was fitted to the “one site – specific binding” using GraphPad Prism. The standard error (SE) is given for a sample size of three replicates per data point."}, "HIV-1 JR-CSF": {"tested_on": "HIV-1 JR-CSF", "assay": "Therapeutic efficacy in humanized mice with established HIV-1 infection", "assay_type": "in vivo, humanized NRG mice", "details": "n = 4", "experimental": "Humanized mice were inoculated with HIV-1 JR-CSF (10 ng p24/mouse) through retro-orbital injection and randomly assigned to 2 groups (4 mice in each group).\nHIV-1 genomic RNA was purified from plasma by using the QIAamp Viral RNA Mini Kit. The RNA was reverse-transcribed and quantitatively detected by real-time PCR with the TaqMan Fast Virus 1-Step PCR kit (Thermo Fisher Scientific). We used the forward primer 5’-[…]-3’ and the reverse primer 5’-[…]-3’ to detect the HIV gag gene. […] The limit of detection of each real-time PCR was 4 copies per reaction. Accordingly, owing to the relatively small volume of plasma in mice (about 50–100 μL total blood), the limit of detection was 400 copies/mL plasma. The copy numbers below the detectable limit were set as 1. Triplicate reactions were performed for each sample."}, "HIV-1 IIIB": {"tested_on": "HIV-1 IIIB", "assay": "Ex vivo anti-HIV-1 activity of sera from treated mice", "assay_type": "in vivo", "details": "BALB/c mice, i.p., N6 3.2 mg/kg and/or IBP-CP24 1.8 mg/kg", "experimental": "The ex vivo anti-HIV-1 activity of a peptide or a bNAb or their combination in serum samples from mice treated with the peptide or bNAb was detected as described previously. […] Sera were collected from these mice at 2 and 8 h post-injection and tested for their inhibitory activity against HIV-1IIIB infection as described above. The dilution fold of the serum causing 50% inhibition (DF-IC50) was calculated."}}, "note": "Positions of bridges follow the written chain, without caps; N, C: chain ends. Residues, ends and D or L forms follow the SMILES beside them.", "data": [{"smiles": "CC[C@H](C)[C@H](NC(=O)[C@H](CC(C)C)NC(=O)[C@H](CCC(=O)O)NC(=O)[C@H](CCC(=O)O)NC(=O)[C@@H](NC(=O)[C@H](CCCCN)NC(=O)[C@H](CCCCN)NC(=O)[C@@H](NC(=O)[C@H](Cc1ccc(O)cc1)NC(=O)[C@H](CCC(=O)O)NC(=O)[C@H](CCC(=O)O)NC(=O)[C@@H](NC(=O)[C@H](CCCCN)NC(=O)[C@H](CCCCN)NC(=O)[C@H](CC(=O)O)NC(=O)[C@H](Cc1c[nH]c2ccccc12)NC(=O)[C@H](CCC(=O)O)NC(=O)[C@H](CCC(=O)O)NC(=O)[C@H](Cc1c[nH]c2ccccc12)NC(=O)[C@@H](NC(=O)[C@H](CCSC)NC(=O)[C@@H](NC(=O)[C@@H]1CSSC[C@H](NC(=O)[C@@H](N)CC(=O)O)C(=O)N[C@@H](C)C(=O)N[C@@H](Cc2c[nH]c3ccccc23)C(=O)N[C@@H](Cc2c[nH]cn2)C(=O)N[C@@H](CC(C)C)C(=O)NCC(=O)N[C@@H](CCC(=O)O)C(=O)N[C@@H](CC(C)C)C(=O)N[C@@H](C(C)C)C(=O)N[C@@H](Cc2c[nH]c3ccccc23)C(=O)N1)[C@@H](C)O)[C@@H](C)O)[C@@H](C)CC)[C@@H](C)O)[C@@H](C)CC)C(=O)N[C@@H](CCCCN)C(=O)N[C@@H](CCCCN)C(=O)N[C@@H](CO)C(=O)O", "note": "[IBP-CP24] (H-DCAWHLGELVWCTMTWEEWDKKIEEYTKKIEELIKKS-OH; disulfide 2-12; N-terminus and C-terminus assumed)", "values": [{"measurement": "Kd", "setting": "rhesus monkey IgG", "value": 0.557, "unit": "µM"}, {"measurement": "mean Δlog10 plasma HIV-1 RNA", "setting": "HIV-1 JR-CSF; 20 mg/kg i.p. once daily for 14 days, coinjected with human IgG 40 mg/kg twice weekly", "value": 0.13, "unit": "log10"}, {"measurement": "average decrease of plasma HIV-1 RNA", "setting": "HIV-1 JR-CSF; day 35 post-treatment, after twice daily 20 mg/kg for 21 days plus human IgG", "value": 1.42, "unit": "log10"}, {"measurement": "DF-IC50 (dilution fold of serum causing 50% inhibition of HIV-1 IIIB infection)", "setting": "HIV-1 IIIB; sera 2 h post-injection", "value": 35}, {"measurement": "DF-IC50 (dilution fold of serum causing 50% inhibition of HIV-1 IIIB infection)", "setting": "HIV-1 IIIB; sera 8 h post-injection", "value": 16}]}]}
